Data from patent publication US20180228801A1, “Method for Enhancing Learning Ability and Memory of Patients with Alzheimer's Disease using Mocetinostat” (National Taiwan Normal University, priority 2017, published 2018).

How the values were obtained:
[1] = test system: pCDK; test: Western blot, pCDK; type: in vivo, mice (C57BL/6J); conditions: hippocampus
Description: (§1) Further, in some embodiments of the present invention, C57BL/6J strain male mice (12 week old) are used as a subject in need. After mice are allowed to adapt to the environment for 6 days, mice are anesthetized with Avertin (0.4 g/kg; purchased from Sigma). The mice are fixed on a stereotactic apparatus for operation, followed by injecting oligomeric Aβ25-35 (10 nM, 3 μL) into bilateral hippocampal CA1 (AP: […] relative to the bregma; ML: ±[…] relative to the midline; DV: […] relative to the skull) on day 7. MGCD0103 and equal volume of vehicle (saline) are intraperitoneal (i.p.) injected once a day from day 8, the day after said operation, for 29 days. On day 24, the Open Field Test is performed; on day 26, the EPM is performed; on day 28, the Y-maze is performed; on days 30 to 36, MWM is performed; and on day 37, mice are euthanized for pathological analysis.

[2] = test system: BACE1 (Aβ forming enzyme); test: Western blot, BACE1; type: in vivo, mice (C57BL/6J); conditions: Aβ25-35 mice, hippocampus
Description: as §1

[3] = test system: Tau protein at the Ser-202 site; test: Immunohistochemical staining, pS202Tau; type: in vivo, mice (C57BL/6J); conditions: Aβ25-35 mice
Description: as §1
The inventor collects the brain tissue by perfusion followed by fixing and dehydrating, then, 30 μm frozen sections are obtained by a freezing microtome (CMS3050S, Leica). […] After that, avidin-biotin complex (ABC) is detected 1 hour after staining. […] After all sections have been stained, they are then fixed on a slide, dried, dehydrated, mounted, and photographed for quantity (performed by Image Pro Plus, Meida Cyberetics, USA).

[4] = test system: Tau protein at Thr-205; test: Western blot, Tau phosphorylation at Thr-205; type: in vivo, mice (C57BL/6J); conditions: Aβ25-35 mice, hippocampus
Description: as §1

[5] = test system: mice with oligomeric Aβ25-35 injected into bilateral hippocampal CA1; test: Open Field Test; type: in vivo, mice (C57BL/6J); conditions: for time spent at the central area (anxiety): Aβ25-35 mice, vs Aβ25-35 alone
Description: as §1
In an embodiment, OFT is performed to said mice. The mice are placed in a central area of a white box (30 cm×30 cm×30 cm). Then, mice are allowed spontaneously walk for 10 minutes, and the time that mice spend at the central area (15 cm×15 cm×15 cm) in the first 5 minutes is recorded. Since mice tend to spend time at a peripheral area of an open field when anxious, observing the time spent in the central zone there by the mice will give an indication of the level of anxiety of the mice. In addition, counting the total distance that the mice have moved in the last 5 minutes may determine an index of spontaneous exercise ability of the mice. After finishing the test for each mouse, the box was wiped with 70% and 30% (v/v) of ethanol solution to remove remaining odor in order to avoid affecting other test results.

[6] = test system: primary hippocampus neurons; test: Cell viability analysis (MTT assay); type: cell-based, mouse (C57BL/6J); conditions: Mus musculus, Neuron; primary hippocampus neurons treated on day 9, viability after 48 hours; read-out: IC50 dose, cell viability
Description: The method of culturing mouse primary hippocampus neurons follow from a modified method from the prior art (Seibenhener and Wooten, 2012), including: obtaining a 16-18 day old embryo from a C57BL/6J strain pregnant female mouse after euthanasia, obtaining hippocampus tissue of the embryo and digesting the tissue with 0.05% trypsin at 37° C. for 15 minutes, and seeding 3×10^4 cells per well in a 48-well plate coated with Poly-L-lysine (100 μg/mL); wherein the components of the medium includes: Neurobasal Medium® (Gibco™; ThermoFisher Scientific, USA) adding 2% of B-27® Additive (Gibco™; ThermoFisher), 0.5 mM of glutamine (Gibco™; ThermoFisher), 25 μM of glutamate (Sigma-Aldrich, USA), 20 unit/mL of penicillin/streptomycin solution (Gibco™; ThermoFisher Scientific, USA), 1 mM of 4-(2-hydroxyethyl)-1-piperazineethanesulfonic acid) (HEPES) (Sigma-Aldrich), and 1% of heat inactivated Donor Horse Serum (Gibco™; ThermoFisher). […]
(3-(4,5-Dimethylthiazol-2-yl)-2,5-diphenyltetrazolium bromide, MTT) (Sigma, USA) has an original color of yellow, which is able to carry out a reducing reaction by a succinate dehydrogenase of mitochondria within living cells that breaks the tetrazolium ring thereof so as to form formazan, which has a violet color. […] Finally, the cell viability may be analyzed by detecting the changes of violet color (O.D. 570) by a spectrophotometer. […]

[7] = high dose 0.5 mg/kg i.p. once a day

With `Nc1ccccc1NC(=O)c1ccc(CNc2nccc(-c3cccnc3)n2)cc1` [MGCD0103, N-(2-Aminophenyl)-4-[[(4-pyridin-3-ylpyrimidin-2-yl)amino]methyl] benzamide] the “expression of pCDK” value [1] was “do not show difference”, the “expression of BACE1” value [2] was “does not show a significant difference” and the pS202Tau ([3]; BLA region) was “significantly decreased”. For the same compound, the pS202Tau ([3]; hippocampal CA1) was “significantly decreased”, the “phosphorylation expression of Tau protein at Thr-205” value [4] was “decreased” and the “time spent at the central area (anxiety)” value [5, 7] was “significantly increase”. For the same compound, the “time spent at the central area (anxiety)” value ([5]; low dose 0.01 mg/kg i.p. once a day) was “significantly increase”, the “total moving distance (spontaneous exercise ability)” value [5, 7] was “does not influence” and the “total moving distance (spontaneous exercise ability)” value ([5]; low dose 0.01 mg/kg i.p. once a day, vs group treated with saline) was “reduced”. For the same compound, the IC50 [6] was ~7 µM.
